Assay results published in patent EP0747380B1, “Compounds and compositions with nitrogen-containing non-basic side chains” (ELI LILLY AND COMPANY, priority 1995, dated 1996).
Read-outs that look alike come from different tables or passages of the source. Marks after values point to notes of the source that are not given here.

What was measured:
uterus = experiment: Uterine wet weight, post-menopausal (OVX) rat model, four day dosing regimen; format: in vivo, female Sprague Dawley rats; conditions: oral, daily for 4 days, OVX rats, * = significantly different than OVX control
Experimental: In the examples illustrating the methods, a post-menopausal model was used in which effects of different treatments upon various biological parameters were determined, including serum cholesterol concentration, uterine weight, eosinophil peroxidase activity, MCF-7 cell proliferation, and bone density.
(§1) Animals were dosed daily for 4 days. […] A blood sample was collected by cardiac puncture.

[1] = test system: eosinophil peroxidase activity; experiment: Uterine eosinophil peroxidase (EPO) assay, OVX rat, four day dosing regimen; conditions: oral, daily for 4 days, OVX rats, * = significantly different than OVX control
Description: (§2) Seventy-five day old female Sprague Dawley rats (weight range of 200 to 225 g) were obtained from Charles River Laboratories (Portage, MI). The animals were either bilaterally ovariectomized (OVX) or exposed to a sham surgical procedure (Intact) at Charles River Laboratories, and then shipped after one week. Upon arrival, they were housed in metal hanging cages in groups of 3 or 4 per cage and had ad libitum access to food (calcium content approximately 0.5%) and water for one week. […] The photoperiod in the room was 12 hours light and 12 hours dark.
(§3) After a one week acclimation period (therefore, two weeks post-OVX), daily dosing with test compound was initiated. 17α-Ethynyl estradiol (EE2) (Sigma Chemical Co., St. Louis, MO), an orally available form of estrogen, or the test compound were given orally, unless otherwise stated, as a suspension in 1% carboxymethyl cellulose or dissolved in 20% cyclodextrin. Animals were dosed daily for 4 days. Following the dosing regimen, animals were weighed and anesthetized with a ketamine:xylazine (2:1, v:v) mixture. A blood sample was collected by cardiac puncture. The animals were then sacrificed by asphyxiation with CO2, the uterus was removed through a midline incision, and a wet uterine weight was determined.
(§4) Uteri were kept at 4° C until time of enzymatic analysis. The uteri were then homogenized in 50 volumes of 50 mM Tris buffer (pH - 8.0) containing 0.005% Triton X-100. Upon addition of 0.01% hydrogen peroxide and 10 mM o-phenylenediamine (final concentrations) in Tris buffer, increase in absorbance was monitored for one minute at 450 nm. […] The maximal velocity of a 15 second interval was determined over the initial, linear portion of the reaction curve.

serum cholesterol = experiment: Serum cholesterol analysis, OVX rat, four day dosing regimen; format: in vivo, female Sprague Dawley rats; conditions: Rattus norvegicus, 96 h, oral, daily for 4 days, OVX rats, * = significantly different than OVX control, read-out: Serum Cholesterol (% dec. OVX)
Experimental: as §1
Blood samples were allowed to clot at room temperature for 2 hours, and serum was obtained following centrifugation for 10 minutes at 3000 rpm. Serum cholesterol was determined using a Boehringer Mannheim Diagnostics high performance cholesterol assay. Briefly the cholesterol was oxidized to cholest-4-en-3-one and hydrogen peroxide. The hydrogen peroxide was then reacted with phenol and 4-aminophenazone in the presence of peroxidase to produce a p-quinone imine dye, which was read spectrophotemetrically at 500 nm. Cholesterol concentration was then calculated against a standard curve. The entire assay was automated using a Biomek Automated Workstation.

[2] = test system: MCF-7 breast adenocarcinoma cells; experiment: MCF-7 proliferation assay (tritiated thymidine incorporation); format: cell-based; conditions: Homo sapiens, MCF7; MCF-7 cells, 48 hours with drug, tritiated thymidine pulse 4 hours; read-out: ED50 (the source's name)
Experimental: MCF-7 breast adenocarcinoma cells (ATCC HTB 22) were maintained in MEM (minimal essential medium, phenol red-free, Sigma, St. Louis, MO) supplemented with 10% fetal bovine serum (FBS) (V/V), L-glutamine (2 mM), sodium pyruvate (1 mM), HEPES {(N-[2-hydroxyethyl]piperazine-N'-[2-ethanesulfonic acid]10 mM}, non-essential amino acids and bovine insulin (1 µg/ml) (maintenance medium). Ten days prior to assay, MCF-7 cells were switched to maintenance medium supplemented with 10% dextrancoated charcoal stripped fetal bovine serum (DCC-FBS) assay medium) in place of 10% FBS to deplete internal stores of steroids. MCF-7 cells were removed from maintenance flasks using cell dissociation medium (Ca++/Mg++ free HBSS (phenol red-free) supplemented with 10 mM HEPES and 2 mM EDTA). Cells were washed twice with assay medium and adjusted to 80,000 cells/ml. […] Serial dilutions of drugs or DMSO as a diluent control were prepared in assay medium and […] to triplicate microcultures followed by 50 ml assay medium for a final volume of […]. After an additional 48 hours at 37° C in a 5% CO2 humidified incubator, microcultures were pulsed with tritiated thymidine (1 uCi/well) for 4 hours. Cultures were terminated by freezing at -70° C for 24 hours followed by thawing and harvesting of microcultures. Samples were counted by liquid scintillation.

[3] = test system: eosinophil peroxidase activity; conditions: rat, in vivo, po
Description: as §2, §3, §4

| SMILES | Uterine Weight (% inc. OVX) (uterus; Dose 0.1 mg/kg) [%] | Uterine Weight (% inc. OVX) (uterus; Dose 1 mg/kg) [%] | Uterine EPO (Vmax) ([1]; Dose 0.1 mg/kg) | Uterine EPO (Vmax) ([1]; Dose 1 mg/kg) | EC50 [2] [nM] | Uterine EPO (Vmax) ([1]; Dose 10 mg/kg) | Uterine Weight (% inc. OVX) (uterus; Dose 10 mg/kg) [%] | Uterine EPO (Vmax) ([3]; 0.1 mg/kg) | Uterine EPO (Vmax) ([3]; 1 mg/kg) | Uterine EPO (Vmax) ([3]; 10 mg/kg) | inhibition in vivo at 0.1 mg/kg (serum cholesterol) [%] | inhibition in vivo at 1 mg/kg (serum cholesterol) [%] | inhibition in vivo at 10 mg/kg (serum cholesterol; Dose 10 mg/kg) [%] |
| --- | --- | --- | --- | --- | --- | --- | --- | --- | --- | --- | --- | --- | --- |
| N#CCOc1ccc(C(=O)c2c(-c3ccc(O)cc3)sc3cc(O)ccc23)cc1 [Compound 14] | 18.8 | 14.6 | 3.3 | 2.4 | 0.05 | – | – | – | – | – | 3.3 | 23.7 | – |
| CC(C#N)Oc1ccc(C(=O)c2c(-c3ccc(O)cc3)sc3cc(O)ccc23)cc1 (stereo not drawn) [Compound 16] | – | – | 2.3 | 3.9 | 0.02 | 23.4 | – | – | – | – | – | – | – |
| O=C(NCCOc1ccc(C(=O)c2c(-c3ccc(O)cc3)sc3cc(O)ccc23)cc1)c1ccccc1 [Compound 18] | – | – | 3.2 | 3.6 | 500 | 3.6 | – | – | – | – | – | – | – |
| CC(=O)N(CCOc1ccc(C(=O)c2c(-c3ccc(O)cc3)sc3cc(O)ccc23)cc1)C1CCCCC1 [Compound 19] | 7 | – | 5.4 | 3.7 | 0.1 | – | – | – | – | – | 14.5 | – | – |
| O=C(NCCOc1ccc(C(=O)c2c(-c3ccc(O)cc3)sc3cc(O)ccc23)cc1)NC1CCCCC1 [Compound 20] | -29.9 | -27.4 | 3.0 | 2.5 | 0.1 | 2.9 | -32.7 | – | – | – | -27.2 | -6 | -15.4 |

Now from value to compound, other results behind:

| Uterine Weight (% inc. OVX) (uterus; Dose 0.1 mg/kg) [%] | Uterine Weight (% inc. OVX) (uterus; Dose 1 mg/kg) [%] | Uterine EPO (Vmax) ([1]; Dose 0.1 mg/kg) | Uterine EPO (Vmax) ([1]; Dose 1 mg/kg) | EC50 [2] [nM] | Uterine EPO (Vmax) ([1]; Dose 10 mg/kg) | Uterine Weight (% inc. OVX) (uterus; Dose 10 mg/kg) [%] | Uterine EPO (Vmax) ([3]; 0.1 mg/kg) | Uterine EPO (Vmax) ([3]; 1 mg/kg) | Uterine EPO (Vmax) ([3]; 10 mg/kg) | SMILES | inhibition in vivo at 0.1 mg/kg (serum cholesterol) [%] | inhibition in vivo at 1 mg/kg (serum cholesterol) [%] | inhibition in vivo at 10 mg/kg (serum cholesterol; Dose 10 mg/kg) [%] |
| --- | --- | --- | --- | --- | --- | --- | --- | --- | --- | --- | --- | --- | --- |
| – | – | 3.1 | 2.6 | – | 2.4 | – | – | – | – | O=C(c1ccc(OCCNC(=O)C2CCCCC2)cc1)c1c(-c2ccc(O)cc2)sc2cc(O)ccc12 [Compound 21] | – | – | – |
| – | – | – | – | 0.01 | – | – | 3.5 | 20.0 | 69.5* | CC(C)(C)C(=O)N1CCCCC1COc1ccc(C(=O)c2c(-c3ccc(O)cc3)sc3cc(O)ccc23)cc1 (stereo not drawn) [Compound 22] | – | – | – |
| -4.3 | 0.8 | 1.6 | 3.8 | 4 | 6.7 | 22.3 | – | – | – | CC(C)(C)C(=O)N1CCC(Oc2ccc(C(=O)c3c(-c4ccc(O)cc4)sc4cc(O)ccc34)cc2)CC1 [Compound 23] | -17.4 | -5.2 | – |
| -17.5 | – | 1.3 | 0.7 | – | 13.6 | – | – | – | – | CC(=O)NCCOc1ccc(C(=O)c2c(-c3ccc(O)cc3)sc3cc(O)ccc23)cc1 [Compound 26] | 15.8 | – | – |
